Experimental data as given in US12459951B2, “Compounds that interact with RAS superfamily proteins for treatment of cancers, inflammatory diseases, rasopathies, and fibrotic disease” (SHY Therapeutics, LLC, priority 2022, dated 2025).
Counter-ions that a name gives are not always drawn.

Columns and labels:
IL6 = experiment: IL-6 Quantification Assay (ELISA), LPS-stimulated RAW 264.7; assay type: cell-based; set-up: inhibition: dose or concentration left out as unconfirmed; conditions: Mus musculus, RAW264.7; read-out: IL-6: % inh.
TNF-alpha = TNF-alpha Quantification Assay (ELISA), LPS-stimulated RAW 264.7; assay type: cell-based; conditions: Mus musculus, RAW264.7; at 10 μM; read-out: TNFα: % inh.
Akt phosphorylation = experiment: Akt Phosphorylation Assay (western blot), Panc-1; assay type: cell-based, human; conditions: at 10 μM, * = activation
Procedure, shortened: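 Panc-1 (KRas G12D) cells were treated with compound at 10 μM final (0.3% DMSO) for 6 h at 37 °C, or with serial dilutions for IC50. Cells were either serum-starved overnight in 0.5% FBS and then stimulated with 1.5 ng/ml EGF for 15 min, or kept in 10% FBS without stimulation. Akt Ser473 phosphorylation in lysates was read by western blot.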

KRas wild type = experiment: Ras GTP Binding Domain Inhibition Assay (Ras Superfamily Assay); conditions: for KRas wild type + SOS: % inh.: with SOS; for KRas wild type: % inh.: without SOS
Procedure, shortened: (§1)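 His-tagged GTPases immobilised on nickel-coated plates, pre-incubated with compound (20 μM single point, or serial dilution for IC50) 3 h at room temperature, with or without 10-30 μg/mL Sos (residues 556-1049) in the final hour. Bound Cy3- or Cy5-GTP (100 nM, 45 min) measured by fluorescence after washing.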

KRas G12D mutant = experiment: as above; conditions: for KRas G12D mutant + SOS: % inh.: with SOS; for KRas G12D mutant: % inh.: without SOS
Procedure, shortened: as §1

Rac-1 = biological target: T1, Rac-1 (Homo sapiens, UniProt P63000); experiment: as above; conditions: read-out: Rac-1: % inh.
T1 construct: made in house
Procedure, shortened: as §1

SMILES | inhibition (IL6) [%] | inhibition at 10 µM (TNF-alpha) [%] | % inh of Akt phosphorylation in Panc-1 (Akt phosphorylation) | KRas wild type + SOS: % inh. (KRas wild type; at 20 μM) | KRas wild type: % inh. (KRas wild type; at 20 μM) | KRas G12D mutant + SOS: % inh. (KRas G12D mutant; at 20 μM) | KRas G12D mutant: % inh. (KRas G12D mutant; at 20 μM) | inhibition at 20 µM (Rac-1) [%] | KRas wild type + SOS: % inh. (KRas wild type; 20 μM compound) | KRas wild type: % inh. (KRas wild type; 20 μM compound) | KRas G12D mutant + SOS: % inh. (KRas G12D mutant; 20 μM compound) | KRas G12D mutant: % inh. (KRas G12D mutant; 20 μM compound)
COc1cccc(-c2cn3nc(-c4nccn4C)nc(N[C@@H]4CC[C@H](OC)C4)c3c2-c2ccccc2)c1C (racemic) [Compound 271, rac 6-(3-Methoxy-2-methylphenyl)-N-((1R,3S)-3-methoxycyclopentyl)-2-(1-methyl-1H-imidazol-2-yl)-5-phenylpyrrolo[2,1-f][1,2,4]triazin-4-amine] | 75 to 100 | 75 to 100 | D (85-100% inhibition) | A (A = 1-25% inhibition) | B (B = 26-49% inhibition) | B (B = 26-49% inhibition) | B (B = 26-49% inhibition) | 26 to 49 |  |  |  | 
COC[C@@H]1CC[C@@H]1CNc1nc(-c2nccn2C)nn2cc(-c3ccn(C(C)C)n3)c(-c3ccccc3)c12 (racemic) [Compound 20, rac 6-(1-Isopropyl-1H-pyrazol-3-yl)-N-(((1S,2R)-2-(methoxymethyl)cyclobutyl)methyl)-2-(1-methyl-1H-imidazol-2-yl)-5-phenylpyrrolo[2,1-f][1,2,4]triazin-4-amine] | 75 to 100 | 1 to 24 | D (85-100% inhibition) |  |  |  |  | 0 | A (A = 1-25% inhibition) | A (A = 1-25% inhibition) | 0 (0 = 0% inhibition) | A (A = 1-25% inhibition)
Cc1c(-c2ccn(C(C)C)n2)cn2nc(-c3nccn3C)nc(Nc3cnn(C(C)C)n3)c12 [Compound 77, 6-(1-Isopropyl-1H-pyrazol-3-yl)-N-(2-isopropyl-2H-1,2,3-triazol-4-yl)-5-methyl-2-(1-methyl-1H-imidazol-2-yl)pyrrolo[2,1-f][1,2,4]triazin-4-amine] | 1 to 24 | 25 to 49 | D* (85-100% activation) |  |  |  |  | 76 to 100 | C (C = 50-75% inhibition) | C (C = 50-75% inhibition) | B (B = 26-49% inhibition) | D (D = 76-100% inhibition)
COc1cccc(-c2cn3nc(-c4nccn4C)nc(N[C@@H]4CC[C@@H](OC)C4)c3c2-c2ccccc2)c1C (racemic) [Compound 270, rac 6-(3-Methoxy-2-methylphenyl)-N-((1R,3R)-3-methoxycyclopentyl)-2-(1-methyl-1H-imidazol-2-yl)-5-phenylpyrrolo[2,1-f][1,2,4]triazin-4-amine] | 75 to 100 | 75 to 100 | D (85-100% inhibition) | A (A = 1-25% inhibition) | B (B = 26-49% inhibition) | B (B = 26-49% inhibition) | B (B = 26-49% inhibition) | 26 to 49 |  |  |  | 
CC(C)n1ccc(-c2cn3nc(-c4nccn4C)nc(O)c3c2-c2ccccc2)n1 [Compound 17, 6-(1-Isopropyl-1H-pyrazol-3-yl)-2-(1-methyl-1H-imidazol-2-yl)-5-phenylpyrrolo[2,1-f][1,2,4]triazin-4-ol] | 50 to 74 | 25 to 49 | D (85-100% inhibition) |  |  |  |  | 50 to 75 | C (C = 50-75% inhibition) | C (C = 50-75% inhibition) | C (C = 50-75% inhibition) | C (C = 50-75% inhibition)
Cc1c(-c2ccn(C(C)C)n2)cn2nc(-c3nccn3C)nc(Nc3noc(C4CC4)n3)c12 [Compound 75, 5-Cyclopropyl-N-(6-(1-isopropyl-1H-pyrazol-3-yl)-5-methyl-2-(1-methyl-1H-imidazol-2-yl)pyrrolo[2,1-f][1,2,4]triazin-4-yl)-1,2,4-oxadiazol-3-amine] | 1 to 24 | 1 to 24 | A* (1-25% activation) |  |  |  |  | 26 to 49 | A (A = 1-25% inhibition) | A (A = 1-25% inhibition) | A (A = 1-25% inhibition) | B (B = 26-49% inhibition)
CO[C@H]1CC[C@@H](Nc2nc(-c3nccn3C)nn3cc(-c4ccn(C(C)C)n4)c(-c4ccccc4)c23)C1 (racemic) [Compound 18, rac 6-(1-Isopropyl-1H-pyrazol-3-yl)-N-((1R,3S)-3-methoxycyclopentyl)-2-(1-methyl-1H-imidazol-2-yl)-5-phenylpyrrolo[2,1-f][1,2,4]triazin-4-amine hydrochloride] | 25 to 49 | 1 to 24 | D* (85-100% activation) |  |  |  |  | 0 | A (A = 1-25% inhibition) | B (B = 26-49% inhibition) | 0 (0 = 0% inhibition) | A (A = 1-25% inhibition)
Cc1ccn2nc(-c3nccn3C)nc(N)c12.O=C(O)C(F)(F)F [Compound 37, 5-Methyl-2-(1-methyl-1H-imidazol-2-yl)pyrrolo[2,1-f][1,2,4]triazin-4-amine trifluoroacetic acid salt] | 0 | 0 | 0 (0% inhibition) |  |  |  |  | 0 | B (B = 26-49% inhibition) | B (B = 26-49% inhibition) | B (B = 26-49% inhibition) | B (B = 26-49% inhibition)
COCC1CCN(c2nc(-c3nccn3C)nn3cc(-c4ccn(C(C)C)n4)c(-c4ccccc4)c23)C1.Cl (racemic) [Compound 19, rac 6-(1-Isopropyl-1H-pyrazol-3-yl)-4-(3-(methoxymethyl)pyrrolidin-1-yl)-2-(1-methyl-1H-imidazol-2-yl)-5-phenylpyrrolo[2,1-f][1,2,4]triazine hydrochloride salt] | 75 to 100 | 25 to 49 | D* (85-100% activation) |  |  |  |  | 0 | A (A = 1-25% inhibition) | A (A = 1-25% inhibition) | A (A = 1-25% inhibition) | B (B = 26-49% inhibition)
Cc1c(-c2ccn(C(C)C)n2)cn2nc(-c3nccn3C)nc(Nc3nnc(C4CC4)[nH]3)c12 [Compound 81, N-(5-Cyclopropyl-4H-1,2,4-triazol-3-yl)-6-(1-isopropyl-1H-pyrazol-3-yl)-5-methyl-2-(1-methyl-1H-imidazol-2-yl)pyrrolo[2,1-f][1,2,4]triazin-4-amine] | 75 to 100 | 50 to 74 | D* (85-100% activation) |  |  |  |  | 76 to 100 | B (B = 26-49% inhibition) | C (C = 50-75% inhibition) | C (C = 50-75% inhibition) | D (D = 76-100% inhibition)
COc1cc(Nc2nc(-c3nccn3C)nn3cc(-c4ccn(C(C)C)n4)c(-c4ccccc4)c23)ncn1 [Compound 22, 6-(1-Isopropyl-1H-pyrazol-3-yl)-N-(6-methoxypyrimidin-4-yl)-2-(1-methyl-1H-imidazol-2-yl)-5-phenylpyrrolo[2,1-f][1,2,4]triazin-4-amine] | 75 to 100 | 0 | A* (1-25% activation) |  |  |  |  | 26 to 49 | A (A = 1-25% inhibition) | B (B = 26-49% inhibition) | B (B = 26-49% inhibition) | B (B = 26-49% inhibition)
